Test results taken from ChEMBL document CHEMBL1201862, “PubChem BioAssay data set” (2004).
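Briefly, cells in 96-well plates were exposed to five compound concentrations for 48 h, and endpoints were estimated by linear interpolation. GI50 = concentration required for 50% inhibition of growth.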 Activity calls are given as the source filed them. Rule as the data show it: active = GI50 up to about 1.1 µM and inactive = higher.

How the values were obtained:
Experiment in all cases: growth of human tumour cells (NCI), 48 h
U-251 = tested on: U-251
OVCAR-8 = tested on: OVCAR-8
OVCAR-5 = tested on: OVCAR-5
HCC 2998 = tested on: HCC 2998
BT-549 = tested on: BT-549
SF-539 = tested on: SF-539
DU-145 = tested on: DU-145
M14 = tested on: M14
SK-MEL-2 = tested on: SK-MEL-2
UACC-62 = tested on: UACC-62
UO-31 = tested on: UO-31
NCI/ADR-RES = tested on: NCI/ADR-RES
SK-MEL-28 = tested on: SK-MEL-28
SK-MEL-5 = tested on: SK-MEL-5
SF-295 = tested on: SF-295
HT-29 = tested on: HT-29
UACC-257 = tested on: UACC-257
786-0 = tested on: 786-0
KM12 = tested on: KM12
EKVX = tested on: EKVX
MDA-MB-231 = tested on: MDA-MB-231
COLO 205 = tested on: COLO 205
T47D = tested on: T47D
Hs-578T = tested on: Hs-578T
SN12C = tested on: SN12C
HOP-62 = tested on: HOP-62
MDA-MB-435 = tested on: MDA-MB-435
SNB-75 = tested on: SNB-75
HCT-15 = tested on: HCT-15
HCT-116 = tested on: HCT-116
Malme-3M = tested on: Malme-3M
LOX IMVI = tested on: LOX IMVI
NCI-H522 = tested on: NCI-H522
CAKI-1 = tested on: CAKI-1
NCI-H226 = tested on: NCI-H226
SF-268 = tested on: SF-268
NCI-H23 = tested on: NCI-H23
PC-3 = tested on: PC-3
HL-60 = tested on: HL-60
CCRF-CEM = tested on: CCRF-CEM
IGROV-1 = tested on: IGROV-1
HOP-92 = tested on: HOP-92
SW-620 = tested on: SW-620
MCF7 = tested on: MCF7
TK-10 = tested on: TK-10
A549 = tested on: A549
NCI-H460 = tested on: NCI-H460
SNB-19 = tested on: SNB-19
OVCAR-4 = tested on: OVCAR-4
RXF 393 = tested on: RXF 393
SR = tested on: SR
MOLT-4 = tested on: MOLT-4
K562 = tested on: K562
SK-OV-3 = tested on: SK-OV-3
MDA-N = tested on: MDA-N
OVCAR-3 = tested on: OVCAR-3
ACHN = tested on: ACHN
RPMI-8226 = tested on: RPMI-8226

## CC(=O)C1=CC=C/C1=N\Nc1ccccc1
U-251
  GI50: 2.97 µM (inactive)
OVCAR-8
  GI50: 9.73 µM (inactive)
OVCAR-5
  GI50: 7 µM (inactive)
HCC 2998
  GI50: 6.07 µM (inactive)
BT-549
  GI50: 11 µM (inactive)
SF-539
  GI50: 2.36 µM (inactive)
DU-145
  GI50: 14.9 µM (inactive)
M14
  GI50: 10.8 µM (inactive)
SK-MEL-2
  GI50: 13.4 µM (inactive)
UACC-62
  GI50: 6.97 µM (inactive)
UO-31
  GI50: 13.1 µM (inactive)
NCI/ADR-RES
  GI50: 5.28 µM (inactive)
SK-MEL-28
  GI50: 14 µM (inactive)
SK-MEL-5
  GI50: 15.6 µM (inactive)
SF-295
  GI50: 11.8 µM (inactive)
HT-29
  GI50: 3.83 µM (inactive)
UACC-257
  GI50: 15.5 µM (inactive)
786-0
  GI50: 4.31 µM (inactive)
KM12
  GI50: 4.38 µM (inactive)
EKVX
  GI50: 5.6 µM (inactive)
MDA-MB-231
  GI50: 10 µM (inactive)
COLO 205
  GI50: 9.42 µM (inactive)
T47D
  GI50: 3.33 µM (inactive)
Hs-578T
  GI50: 4.48 µM (inactive)
SN12C
  GI50: 5.81 µM (inactive)
HOP-62
  GI50: 20.8 µM (inactive)
MDA-MB-435
  GI50: 13.1 µM (inactive)
SNB-75
  GI50: 9.33 µM (inactive)
HCT-15
  GI50: 5.14 µM
HCT-116
  GI50: 4.99 µM (inactive)
Malme-3M
  GI50: 14.6 µM (inactive)
LOX IMVI
  GI50: 2.84 µM (inactive)
NCI-H522
  GI50: 4.71 µM (inactive)
CAKI-1
  GI50: 3.91 µM (inactive)
NCI-H226
  GI50: 17.3 µM (inactive)
SF-268
  GI50: 7.43 µM (inactive)
NCI-H23
  GI50: 9.06 µM (inactive)
PC-3
  GI50: 5.45 µM (inactive)
HL-60
  GI50: 0.647 µM (active)
CCRF-CEM
  GI50: 2.94 µM (inactive)
IGROV-1
  GI50: 7.4 µM (inactive)
HOP-92
  GI50: 11.7 µM (inactive)
SW-620
  GI50: 3.82 µM (inactive)
MCF7
  GI50: 1.29 µM (inactive)
TK-10
  GI50: 7.14 µM (inactive)
A549
  GI50: 15.1 µM (inactive)
NCI-H460
  GI50: 11.6 µM (inactive)
SNB-19
  GI50: 21.1 µM (inactive)
OVCAR-4
  GI50: 5.71 µM (inactive)
RXF 393
  GI50: 11.6 µM (inactive)
SR
  GI50: 0.543 µM (active)
MOLT-4
  GI50: 3.67 µM (inactive)
K562
  GI50: 3.94 µM (inactive)
SK-OV-3
  GI50: 16.6 µM (inactive)
MDA-N
  GI50: 6.22 µM (inactive)
OVCAR-3
  GI50: 3.22 µM (inactive)
ACHN
  GI50: 11.2 µM (inactive)
RPMI-8226
  GI50: 1.98 µM (inactive)
